Legend:
[1] = target: Gppcp-bound recombinant K-Ras4B G12C mutant protein (amino acids 1-169, C51S/C80L/C118S) (Homo sapiens, UniProt P01116, C118S/C51S/C80L/G12C); experiment: KRASG12C binding assay (LC-MS, compound binding rate); conditions: test compound final concentration 0.5 μM, 25° C., 1 hour
Procedure, shortened: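 Covalent adduct formation measured by deconvoluted intact-mass LC-MS after 1 h at 25 °C with compound at 0.5 μM final and 50 nM Gppcp-loaded KRAS G12C (residues 1-169, C51S/C80L/C118S). Buffer: TBS, 0.1 mM TCEP, 0.25 mM MgCl2, 50 μM Gppcp. Binding % = one-molecule adduct/(unbound + all adducts), binned A ≥80, B 60–80, C 40–60, D 20–40, E <20.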

[2] = target: T1, interaction between recombinant K-Ras4B G12C mutant protein and cRAF RAS-binding domain (cRAF-RBD) (Homo sapiens, UniProt P01116, G12C); experiment: Inhibitory activity on interaction between KRAS G12C and cRAF (Alpha technology); assay type: biochemical; conditions: GMPPNP-bound KRAS G12C incubated with compound at 25° C. for 1 hour, then cRAF-RBD; Alpha signal
T1 construct: made in house; host or cells: E. coli
Procedure, shortened: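 Alpha readout of cRAF-RBD (aa 50-132) binding to KRAS G12C (aa 1-169) after 1.5 h RT, following 1 h, 25° C compound preincubation with GMPPNP-bound protein (pH 7.5 Tris, 1 mM MgCl2, TCEP, Tween 20). IC50 fitted from titrations, with GDP-bound KRAS as 100% and DMSO as 0% inhibition.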

[3] = tested on: MIA PaCa-2 cells; experiment: Growth inhibition activity on KRAS-G12C mutant cell line (MIA PaCa-2), CellTiter-Glo 3D; assay type: cell-based, human; conditions: MIA PaCa-2, 3-day culture with compound
Procedure, shortened: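 Luminescence readout (CellTiter-Glo 3D) after 3 days of compound treatment at 37 °C, 5% CO2, 0.2% final DMSO, gave % growth inhibition versus no-compound wells, from which IC50 (nM) was derived; cells had been plated in 10% FBS RPMI1640 one day before dosing.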

| IC50 [2] [µM] | IC50 [3] [µM] | IC50 ([3]; Homo sapiens, MIA PaCa-2, 72 h) [µM] | SMILES | binding rate [1] |
| --- | --- | --- | --- | --- |
| 0.45 | 1.1 |  | Cc1nc2c(Cl)c(-c3cccn4c(C(=O)c5cc(F)c(NC(=O)/C=C/CNC(C)(C)C)c(F)c5)ccc34)c(C(F)(F)F)cc2n1C (single isomer, unassigned) [Example 56-1, (E)-4-(tert-butylamino)-N-(4-(8-(4-chloro-1,2-dimethyl-6-(trifluoromethyl)-1H-benzo[d]imidazol-5-yl)indolizine-3-carbonyl)-2,6-difluorophenyl)but-2-enamide] | A (A binding rate of 80% or more is rated “A”) |
| 0.056 | 0.042 |  | COc1cc2c(ncn2C)c(Cl)c1-c1cccn2c(C(=O)c3cc(F)c(NC(=O)/C=C/CNC(C)(C)C)c(F)c3)ccc12 (single isomer, unassigned) [Example 14-2, (E)-4-(tert-butylamino)-N-(4-(8-(4-chloro-6-methoxy-1-methyl-1H-benzo[d]imidazol-5-yl)indolizine-3-carbonyl)-2,6-difluorophenyl)but-2-enamide] | A (A binding rate of 80% or more is rated “A”) |
| 0.02 | 0.047 |  | CO[C@H]1CC[C@H](NC/C=C/C(=O)Nc2c(F)cc(C(=O)c3ccc4c(-c5c(C)cc6c(nc(C)n6C)c5Cl)cccn34)cc2F)CC1 (single isomer, unassigned) [Example 19-1, (E)-N-(4-(8-(4-chloro-1,2,6-trimethyl-1H-benzo[d]imidazol-5-yl)indolizine-3-carbonyl)-2,6-difluorophenyl)-4-(((1r,4r)-4-methoxycyclohexyl)amino)but-2-enamide] | A (A binding rate of 80% or more is rated “A”) |
| 0.056 | 0.06 |  | COc1cc2c(nc(C)n2C)c(Cl)c1-c1cccn2c(C(=O)c3cc(F)c(NC(=O)/C=C/CNC(C)(C)C)c(F)c3)ccc12 (single isomer, unassigned) [Example 36-2, (E)-4-(tert-butylamino)-N-(4-(8-(4-chloro-6-methoxy-1,2-dimethyl-1H-benzo[d]imidazol-5-yl)indolizine-3-carbonyl)-2,6-difluorophenyl)but-2-enamide] | A (A binding rate of 80% or more is rated “A”) |
| 0.021 | 0.073 |  | COc1c(-c2cccn3c(C(=O)c4cc(F)c(NC(=O)/C=C/CNC(C)(C)C)c(F)c4)ccc23)c(C)cc2c1nc(C)n2C (single isomer, unassigned) [Example 40-2] | A (A binding rate of 80% or more is rated “A”) |
| 0.029 | 0.029 |  | Cc1cc2c(nc(C)n2C)c(Cl)c1-c1cccn2c(C(=O)c3cc(F)c(NC(=O)/C=C/CNC(C)(C)C)c(F)c3)ccc12 (single isomer, unassigned) [Example 18-1, (E)-4-(tert-butylamino)-N-(4-(8-(4-chloro-1,2,6-trimethyl-1H-benzo[d]imidazol-5-yl)indolizine-3-carbonyl)-2,6-difluorophenyl)but-2-enamide] | A (A binding rate of 80% or more is rated “A”) |
| 0.019 | 0.049 |  | CO[C@H](C)c1nc2c(Cl)c(-c3cccn4c(C(=O)c5cc(F)c(NC(=O)/C=C/CNC(C)(C)C)c(F)c5)ccc34)c(C)cc2n1C (single isomer, unassigned) [Example 49] | A (A binding rate of 80% or more is rated “A”) |
| 0.021 | 0.029 |  | Cc1nc2c(Cl)c(-c3cccn4c(C(=O)c5cc(F)c(NC(=O)/C=C/CNC(C)(C)C)c(F)c5)ccc34)c(C(F)(F)F)cc2n1C (single isomer, unassigned) [Example 56-2, (E)-4-(tert-butylamino)-N-(4-(8-(4-chloro-1,2-dimethyl-6-(trifluoromethyl)-1H-benzo[d]imidazol-5-yl)indolizine-3-carbonyl)-2,6-difluorophenyl)but-2-enamide] | A (A binding rate of 80% or more is rated “A”) |

The next lines start with the molecule.

| SMILES | IC50 [2] [µM] | IC50 [3] [µM] | IC50 ([3]; Homo sapiens, MIA PaCa-2, 72 h) [µM] | binding rate [1] |
| --- | --- | --- | --- | --- |
| Cc1cc2c(ncn2C)c(Cl)c1-c1cccn2c(C(=O)c3cc(F)c(NC(=O)/C=C/CNC4CCOCC4)c(F)c3)ccc12 (single isomer, unassigned) [Example 27-2, (E)-N-(4-(8-(4-chloro-1,6-dimethyl-1H-benzo[d]imidazol-5-yl)indolizine-3-carbonyl)-2,6-difluorophenyl)-4-((tetrahydro-2H-pyran-4-yl)amino)but-2-enamide] | 0.12 | 0.53 |  | A (A binding rate of 80% or more is rated “A”) |
| Cc1nc2cc(-c3cccn4c(C(=O)c5cc(F)c(NC(=O)/C=C/CN[C@H]6CC[C@H](O)CC6)c(F)c5)ccc34)c(C(F)(F)F)cc2n1C [Example 55] | 0.041 |  | 0.088 | A (A binding rate of 80% or more is rated “A”) |
| COc1c(-c2cccn3c(C(=O)c4cc(F)c(NC(=O)/C=C/CN[C@H]5CC[C@H](OC)CC5)c(F)c4)ccc23)c(C(F)(F)F)cc2c1nc(C)n2C (single isomer, unassigned) [Example 60-1, (E)-N-(2,6-difluoro-4-(8-(4-methoxy-1,2-dimethyl-6-(trifluoromethyl)-1H-benzo[d]imidazol-5-yl)indolizine-3-carbonyl)phenyl)-4-(((1r,4r)-4-methoxycyclohexyl)amino)but-2-enamide] | 1.6 | 1.6 |  | A (A binding rate of 80% or more is rated “A”) |
| Cc1nc2cc(-c3cccn4c(C(=O)c5cc(F)c(NC(=O)/C=C/CN[C@@H]6CCOC6)c(F)c5)ccc34)c(C(F)(F)F)cc2n1C [Example 91] | 0.075 |  | 0.1 | A (A binding rate of 80% or more is rated “A”) |
| Cn1cnc2cc(-c3cccn4c(C(=O)c5cc(F)c(NC(=O)/C=C/CNC6CCOCC6)c(F)c5)ccc34)c(C(F)(F)F)cc21 [Example 9, (E)-N-(2,6-difluoro-4-(8-(1-methyl-6-(trifluoromethyl)-1H-benzo[d]imidazol-5-yl)indolizine-3-carbonyl)phenyl)-4-((tetrahydro-2H-pyran-4-yl)amino)but-2-enamide] | 0.027 |  | 0.082 | A (A binding rate of 80% or more is rated “A”) |
| Cc1nc2c(Cl)c(-c3cccn4c(C(=O)c5cc(F)c(NC(=O)/C=C/CNC6CCOCC6)c(F)c5)ccc34)c(C(F)(F)F)cc2n1C (single isomer, unassigned) [Example 57-1, (E)-N-(4-(8-(4-chloro-1,2-dimethyl-6-(trifluoromethyl)-1H-benzo[d]imidazol-5-yl)indolizine-3-carbonyl)-2,6-difluorophenyl)-4-((tetrahydro-2H-pyran-4-yl)amino)but-2-enamide] | 0.043 | 0.02 |  | A (A binding rate of 80% or more is rated “A”) |
| Cc1nc2cc(-c3cccn4c(C(=O)c5cc(F)c(NC(=O)/C=C/CNC6(C)CC6)c(F)c5)ccc34)c(C(F)(F)F)cc2n1C [Example 62, (E)-N-(4-(8-(1,2-dimethyl-6-(trifluoromethyl)-1H-benzo[d]imidazol-5-yl)indolizine-3-carbonyl)-2,6-difluorophenyl)-4-((1-methylcyclopropyl)amino)but-2-enamide] | 0.066 |  | 0.14 | A (A binding rate of 80% or more is rated “A”) |
| CO[C@H](C)c1nc2c(Cl)c(-c3cccn4c(C(=O)c5cc(F)c(NC(=O)/C=C/CN[C@H]6CC[C@H](OC)CC6)c(F)c5)ccc34)c(C)cc2n1C (single isomer, unassigned) [Example 48] | 0.11 | 0.23 |  | A (A binding rate of 80% or more is rated “A”) |
| COc1c(-c2cccn3c(C(=O)c4cc(F)c(NC(=O)/C=C/CN[C@H]5CC[C@H](OC)CC5)c(F)c4)ccc23)c(C(F)(F)F)cc2c1nc(C)n2C (single isomer, unassigned) [Example 60-2, (E)-N-(2,6-difluoro-4-(8-(4-methoxy-1,2-dimethyl-6-(trifluoromethyl)-1H-benzo[d]imidazol-5-yl)indolizine-3-carbonyl)phenyl)-4-(((1r,4r)-4-methoxycyclohexyl)amino)but-2-enamide] | 0.026 | 0.015 |  | A (A binding rate of 80% or more is rated “A”) |
| CCc1nc2c(-c3c(C(F)(F)F)cc4c(nc(C)n4C)c3OC)cccn2c1C(=O)c1cc(F)c(NC(=O)/C=C/CN[C@H]2CC[C@H](OC)CC2)c(F)c1 (single isomer, unassigned) [Example 102-1, (E)-N-(4-(2-ethyl-8-(4-methoxy-1,2-dimethyl-6-(trifluoromethyl)-1H-benzo[d]imidazol-5-yl)imidazo[1,2-a]pyridine-3-carbonyl)-2,6-difluorophenyl)-4-(((1r,4r)-4-methoxycyclohexyl)amino)but-2-enamide] | 0.0572 | 0.0201 |  | A (A binding rate of 80% or more is rated “A”) |
